The results in this text go back to patent US9580459B2, “Water-soluble ursodeoxycholic acid prodrugs” (Metselex, Inc., priority 2013, dated 2017).

Series [1] can be described thus: aqueous solubility of the prodrugs. In kind it is physicochemical. How it is done: To obtain the 7-substituted phosphate ester prodrug of UDCA, benzyl ester 1 was treated with benzyl chloroformate and pyridine in dichloromethane as shown in FIG. 2. This led to a mixture of products, including 3-Cbz-protected alcohol (41%) (compound 4), 7-Cbz-protected alcohol (10%) (compound 5), and recovered starting material (41%). These products were readily separated by column chromatography, which allowed definitive confirmation of the regiochemistry of the prodrugs by ^1H NMR analysis, as the signal of the proton next to the Cbz-protected alcohol (Ha in FIG. 2) was a dddd in the major mono-substituted product (consistent with compound 4) and a ddd in the minor mono-substituted product (consistent with compound 5). Compound 4 was then converted into a 7-substituted phosphate ester prodrug (compound 7) using dibenzyl N,N-diethylphosphoramidite followed by oxidation with H2O2 and then Pd/C catalyzed debenzylation. Similar standard conditions converted compound 5 into the same 3-substituted phosphate ester prodrug (compound 3) that was obtained in FIG. 1. Both phosphate prodrugs (compound 3 and compound 7) were highly aqueously soluble, rapidly dissolving at all concentrations tested (up to 20 mg/mL), and were stable in solution for extended periods of time (>6 months) without any apparent decomposition. […]

Series [2] deals with primary rat hepatocytes. As to the kind of experiment: TGFβ1-induced cytotoxicity (LDH release). In kind it is cell-based. The settings on record: 100 μM, 12 hours, then 1 nmol/L TGF-β1 24 hours; alkaline phosphatase added for compound 19d; p<0.05. How it is done:
To compare the in vitro cytoprotective effects of the new prodrugs with UDCA, an alcohol-linked phosphate prodrug (the 3-substituted prodrug compound 3) and the POMC prodrug compound 19d were evaluated for their ability to modulate TGFβ1-induced cytotoxicity. […] Therefore, AP was added to the culture medium whenever assessing the cytoprotective potential of compound 19d. The ability of compound 3 and compound 19d to inhibit TGFβ1-induced general cell death, as compared with UDCA were analyzed. […] Results are expressed as means±SEM of at least three different experiments (*p<0.01 from respective control; §p<0.05 from respective TGFβ). […] Similarly as before, UDCA, compound 3 and compound 19d, inhibited TGFβ1-induced cytotoxicity by about 40, 30 and 60%, respectively (p<0.05).
In another example, primary rat hepatocytes were isolated from male rats (100-150 g) by collagenase perfusion. Briefly, rats were anesthetized with phenobarbital sodium (100 mg/kg body weight) injected into the peritoneal cavity. […] Cell viability was determined by trypan blue exclusion and was typically 80-85%. […]
In another example, LDH, a stable cytosolic enzyme, is released to cell culture media following cell lysis, and can be used as a marker of cytotoxicity. […] Finally, absorbance was measured at 490 nm, with 690 nm as reference, using a Bio-Rad model 680-microplate reader (Bio-Rad Laboratories, Hercules, Calif.).

Series [3] has as its target T1, alkaline phosphatase from bovine intestinal mucosa (Bos taurus, UniProt P19111).
T1 construct: alkaline phosphatase from bovine intestinal mucosa; purchased Sigma-Aldrich P5521-2KU; host or cells: bovine intestinal mucosa (tissue-derived)
Kind of series: alkaline phosphatase catalyzed activation monitored by inverse-gated decoupled 31P NMR. The format is biochemical. The settings on record: in vitro, Tris glycine buffer. How it is done:
To determine whether the POMC prodrug was indeed activated under in vitro conditions faster than a prodrug where the phosphate moiety is directly linked to an alcohol, a series of experiments were conducted monitoring the alkaline phosphatase catalyzed activation of the prodrugs compound 19d and compound 3 by inverse-gated decoupled ^31P NMR. […] Each data point represents the mean of three separate experiments±standard error of the mean (SEM).
In another example, alkaline phosphatase from bovine intestinal mucosa (P5521-2KU, Sigma-Aldrich, St. Louis, Mo.) was dissolved in 2.0 mL of a 0.100 M […] glycine buffer containing 1.0 mM ZnCl2 and 1.0 mM MgCl2. This stock solution was stored at 4° C. between uses.
Compound 19d (10.0 mg, 0.016 mmol) or compound 3 (8.7 mg, 0.016 mmol) was dissolved in 0.6 mL of a 0.100 M Tris glycine buffer solution containing 1.0 mM ZnCl2 and 1.0 mM MgCl2. […] 50 μL of the previously prepared AP stock solution was further diluted by addition to 0.950 mL of a 0.100 M Tris glycine buffer containing 1.0 mM ZnCl2 and 1.0 mM MgCl2. 10.0 μL of this diluted AP solution was added to the prodrug solution by syringe. […] Conversion (%) was determined from the relative integration of the starting material and product peaks, NMR time stamps were used to determine time. […]

The subject of series [4] is primary rat hepatocytes. Kind of series: TGFβ1-induced loss of cellular viability (CellTiter-Fluor viability assay). In kind it is cell-based. The settings on record: presence or absence of 3 U/ml alkaline phosphatase; preliminary results.
A short description of series [5]: stability in Tris glycine buffer without enzyme (31P NMR). The format is physicochemical. The settings on record: 0.100 M Tris glycine buffer with 1.0 mM ZnCl2 and 1.0 mM MgCl2, 1 h, no enzyme. How it is done:
Compound 19d (10.0 mg, 0.016 mmol) or compound 3 (8.7 mg, 0.016 mmol) was dissolved in 0.6 mL of a 0.100 M Tris glycine buffer solution containing 1.0 mM ZnCl2 and 1.0 mM MgCl2. […] 50 μL of the previously prepared AP stock solution was further diluted by addition to 0.950 mL of a 0.100 M Tris glycine buffer containing 1.0 mM ZnCl2 and 1.0 mM MgCl2. […] A series of 42 inverse-gated decoupled ^31P NMR's were taken (24 scans each, approximately one minute acquisition time). Conversion (%) was determined from the relative integration of the starting material and product peaks, NMR time stamps were used to determine time. Each experiment was repeated three times.

T1 sequence (P19111 20-506 limits assumed): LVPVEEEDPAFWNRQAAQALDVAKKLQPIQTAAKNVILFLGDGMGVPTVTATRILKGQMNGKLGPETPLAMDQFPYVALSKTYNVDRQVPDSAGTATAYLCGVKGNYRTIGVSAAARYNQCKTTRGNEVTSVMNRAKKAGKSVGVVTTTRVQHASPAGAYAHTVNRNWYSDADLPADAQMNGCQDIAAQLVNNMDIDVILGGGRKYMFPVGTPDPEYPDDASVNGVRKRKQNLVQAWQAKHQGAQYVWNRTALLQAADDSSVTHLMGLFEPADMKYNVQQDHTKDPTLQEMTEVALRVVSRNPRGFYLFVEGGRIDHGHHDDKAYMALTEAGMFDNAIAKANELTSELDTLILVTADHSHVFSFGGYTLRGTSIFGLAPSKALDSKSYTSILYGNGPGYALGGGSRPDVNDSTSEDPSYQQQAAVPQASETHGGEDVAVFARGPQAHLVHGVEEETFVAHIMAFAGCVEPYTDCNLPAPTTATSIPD

In the case of `C[C@H](CCC(=O)O)[C@H]1CC[C@H]2[C@@H]3[C@@H](OP(=O)([O-])[O-])C[C@@H]4C[C@H](O)CC[C@]4(C)[C@H]3CC[C@]12C.[Na+].[Na+]` [compound 7, 7-(Phosphonatooxy)-ursodeoxycholic acid sodium salt], in series [1], the aqueous solubility was no less than 20 mg/mL.
Regarding `C[C@H](CCC(=O)O)[C@H]1CC[C@H]2[C@@H]3[C@@H](O)C[C@@H]4C[C@H](O)CC[C@]4(C)[C@H]3CC[C@]12C` [UDCA, Ursodeoxycholic acid], in series [2], the “inhibition of TGFβ1-induced cytotoxicity (LDH release)” value was “about 40%”.
Regarding `CC(CCC(=O)OCOP(=O)(O)O)C1CCC2C3C(O)CC4CC(O)CCC4(C)C3CCC12C` (stereo not shown) [compound 19, ursodeoxycholic acid phosphonooxymethoxy ester], the “rate of release of UDCA by alkaline phosphatase (compared with compound 3)” value in series [3] is “faster”. Further, the “effect of alkaline phosphatase (AP) in the culture medium on cytoprotective properties” value in series [4] is listed as “required activation by exogenous alkaline phosphatase”.
For `C[C@H](CCC(=O)O)[C@H]1CC[C@H]2[C@@H]3[C@@H](O)C[C@@H]4C[C@H](OP(=O)([O-])[O-])CC[C@]4(C)[C@H]3CC[C@]12C.[Na+].[Na+]` [compound 3, 3-(Phosphonatooxy)-ursodeoxycholic acid sodium salt], the “inhibition of TGFβ1-induced cytotoxicity (LDH release)” value in series [2] is roughly 30%. The “effect of alkaline phosphatase (AP) in the culture medium on cytoprotective properties” value in series [4] is reported as “does not significantly change”. In addition, the “decomposition by 31P NMR in buffer” value in series [5] is “Neither compound showed decomposition”.

As usually defined, the aqueous solubility is how much of the substance goes into solution per volume.
